What is called Ki is a measure of affinity in units of concentration, obtained from inhibition or displacement. A high value points to lower affinity.

A value given as a limit tells only on which side of the number the result lay.

T1 sequence (O00311 whole entry): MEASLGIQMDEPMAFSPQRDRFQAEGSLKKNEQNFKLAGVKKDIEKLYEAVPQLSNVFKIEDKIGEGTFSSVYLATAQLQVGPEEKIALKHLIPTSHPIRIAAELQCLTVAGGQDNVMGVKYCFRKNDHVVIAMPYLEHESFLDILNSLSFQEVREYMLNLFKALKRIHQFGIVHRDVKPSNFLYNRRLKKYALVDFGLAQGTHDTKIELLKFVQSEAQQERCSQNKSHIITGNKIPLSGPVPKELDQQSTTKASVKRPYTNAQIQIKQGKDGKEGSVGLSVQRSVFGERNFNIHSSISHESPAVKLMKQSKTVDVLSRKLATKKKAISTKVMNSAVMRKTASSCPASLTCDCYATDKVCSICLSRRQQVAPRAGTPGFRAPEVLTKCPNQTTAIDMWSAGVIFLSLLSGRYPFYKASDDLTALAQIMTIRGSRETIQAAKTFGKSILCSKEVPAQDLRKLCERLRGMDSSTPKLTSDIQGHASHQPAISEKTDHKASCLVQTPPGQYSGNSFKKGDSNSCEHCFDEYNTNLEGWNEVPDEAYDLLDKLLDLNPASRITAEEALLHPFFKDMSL
T1 sequence (Q9UBU7 whole entry partner): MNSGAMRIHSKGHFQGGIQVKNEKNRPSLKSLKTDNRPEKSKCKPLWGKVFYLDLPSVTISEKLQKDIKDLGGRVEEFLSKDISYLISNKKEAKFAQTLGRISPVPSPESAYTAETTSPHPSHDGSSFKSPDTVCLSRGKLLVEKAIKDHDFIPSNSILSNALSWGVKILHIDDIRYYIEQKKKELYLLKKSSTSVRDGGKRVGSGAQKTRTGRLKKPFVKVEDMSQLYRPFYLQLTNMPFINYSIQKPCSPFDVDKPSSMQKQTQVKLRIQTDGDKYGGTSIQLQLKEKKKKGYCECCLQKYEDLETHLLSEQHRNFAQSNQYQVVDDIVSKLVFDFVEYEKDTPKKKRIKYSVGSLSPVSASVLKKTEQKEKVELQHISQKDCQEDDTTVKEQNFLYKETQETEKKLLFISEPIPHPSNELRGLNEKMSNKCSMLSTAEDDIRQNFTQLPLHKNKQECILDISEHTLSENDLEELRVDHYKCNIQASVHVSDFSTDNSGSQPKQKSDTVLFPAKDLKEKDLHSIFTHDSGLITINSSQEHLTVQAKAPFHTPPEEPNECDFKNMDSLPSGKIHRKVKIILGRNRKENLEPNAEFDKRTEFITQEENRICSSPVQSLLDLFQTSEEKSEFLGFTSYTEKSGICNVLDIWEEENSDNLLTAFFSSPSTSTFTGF

The assay addresses T1, Cdc7 (BEV coexpressed huCDC7/DBF4) (Homo sapiens, UniProt O00311).
T1 construct: made in house; host or cells: BEV (baculovirus expression vector) co-expression; insect cells are implied but no cell line is named
The assay is described as follows: Cdc7 enzyme inhibition assay ([33P]ATP, biotinylated peptide substrate, FlashPlate). It is filed as biochemical. As to conditions: Table 3; enzyme inhibition data (Ki). Here is the method:
Cdc7 (BEV coexpressed huCDC7/DBF4) is prepared internally. Cdc7 assays are conducted as follows with final concentrations as listed. […] Reactions are quenched after 1 hr by the addition of 90 μL stop buffer (50 mM EDTA, 2M NaCl). […] (Ki) for exemplary compounds.
In turn, `CCN(CCO)CC(=O)N[C@H]1CC[C@H](Nc2cc(-c3c[nH]c4ncc(OC)cc34)cc(Cl)n2)CC1` [Example 432, N-(trans-4-{[6-chloro-4-(5-methoxy-1H-pyrrolo[2,3-b]pyridin-3-yl)pyridin-2-yl]amino}cyclohexyl)-N~2~-ethyl-N~2~-(2-hydroxyethyl)glycinamide] had a Ki of less than 0.01 µM.
For `COc1cnc2[nH]cc(-c3cc(Cl)nc(N[C@H]4CC[C@H](NC(=O)CNCCO)CC4)c3)c2c1` [Example 433, N-(trans-4-{[6-chloro-4-(5-methoxy-1H-pyrrolo[2,3-b]pyridin-3-yl)pyridin-2-yl]amino}cyclohexyl)-N~2~-(2-hydroxyethyl)glycinamide] the value was less than 0.01 µM; for `CN(C)c1ccc(Nc2cc(-c3c[nH]c4ncccc34)cc(Cl)n2)cc1` [Example 434, N′-[6-chloro-4-(1H-pyrrolo[2,3-b]pyridin-3-yl)pyridin-2-yl]-N,N-dimethylbenzene-1,4-diamine], less than 0.01 µM; for `Clc1cc(-c2c[nH]c3ncccc23)cc(Nc2ccc3c(c2)CCC3)n1` [Example 435, 6-chloro-N-(2,3-dihydro-1H-inden-5-yl)-4-(1H-pyrrolo[2,3-b]pyridin-3-yl)pyridin-2-amine], less than 0.01 µM.
For `Clc1cc(-c2c[nH]c3ncccc23)cc(Nc2ccc3c(c2)OCCO3)n1` [Example 436, 6-chloro-N-(2,3-dihydro-1,4-benzodioxin-6-yl)-4-(1H-pyrrolo[2,3-b]pyridin-3-yl)pyridin-2-amine] the value was less than 0.01 µM; for `Clc1cc(-c2c[nH]c3ncccc23)cc(Nc2ccc(N3CCOCC3)cc2)n1` [Example 438, 6-chloro-N-[4-(morpholin-4-yl)phenyl]-4-(1H-pyrrolo[2,3-b]pyridin-3-yl)pyridin-2-amine], less than 0.01 µM.
Consider `Clc1cc(-c2c[nH]c3ncccc23)cc(Nc2cccc3c2CCCC3)n1` [Example 439, 6-chloro-4-(1H-pyrrolo[2,3-b]pyridin-3-yl)-N-(5,6,7,8-tetrahydronaphthalen-1-yl)pyridin-2-amine], for which the Ki was less than 0.01 µM.
`CC(C)(C)c1ccc(Nc2cc(-c3c[nH]c4ncccc34)cc(Cl)n2)cc1` [Example 440, N-(4-tert-butylphenyl)-6-chloro-4-(1H-pyrrolo[2,3-b]pyridin-3-yl)pyridin-2-amine] yielded a Ki of less than 0.01 µM.
The figure for `Clc1cc(-c2c[nH]c3ncccc23)cc(Nc2cccc3c2CCC3)n1` [Example 441, 6-chloro-N-(2,3-dihydro-1H-inden-4-yl)-4-(1H-pyrrolo[2,3-b]pyridin-3-yl)pyridin-2-amine] is less than 0.01 µM; for `Clc1cc(-c2c[nH]c3ncccc23)cc(Nc2ccc3ncccc3c2)n1` [Example 442, N-[6-chloro-4-(1H-pyrrolo[2,3-b]pyridin-3-yl)pyridin-2-yl]quinolin-6-amine] it is less than 0.01 µM.
For `CN1CCN(c2ccc(Nc3cc(-c4c[nH]c5ncccc45)cc(Cl)n3)cc2)CC1` [Example 443, 6-chloro-N-[4-(4-methylpiperazin-1-yl)phenyl]-4-(1H-pyrrolo[2,3-b]pyridin-3-yl)pyridin-2-amine] the value was less than 0.01 µM.
`O=S1(=O)CCN(c2ccc(Nc3cc(-c4c[nH]c5ncccc45)cc(Cl)n3)cc2)CC1` [Example 444, 6-chloro-N-[4-(1,1-dioxidothiomorpholin-4-yl)phenyl]-4-(1H-pyrrolo[2,3-b]pyridin-3-yl)pyridin-2-amine] showed a Ki of less than 0.01 µM.
As for `COc1cnc2[nH]cc(-c3cc(Cl)nc(N[C@H]4CC[C@H](NC(=O)CN[C@H]5CC[C@H](O)CC5)CC4)c3)c2c1` [Example 445, N-(trans-4-{[6-chloro-4-(5-methoxy-1H-pyrrolo[2,3-b]pyridin-3-yl)pyridin-2-yl]amino}cyclohexyl)-N~2~-(trans-4-hydroxycyclohexyl)glycinamide], the Ki was less than 0.01 µM.
The compound `COc1cnc2[nH]cc(-c3cc(Cl)nc(N[C@H]4CC[C@H](NC(=O)CNC(C)C)CC4)c3)c2c1` [Example 446, N-(trans-4-{[6-chloro-4-(5-methoxy-1H-pyrrolo[2,3-b]pyridin-3-yl)pyridin-2-yl]amino}cyclohexyl)-N~2~-propan-2-ylglycinamide] had a Ki of less than 0.01 µM.
Turning to `COc1cnc2[nH]cc(-c3cc(Cl)nc(NC4CCC(CC5CCC(NS(=O)(=O)c6c(C)noc6C)CC5)CC4)c3)c2c1` (centres unmarked) [Example 447, N-{4-[(4-{[6-chloro-4-(5-methoxy-1H-pyrrolo[2,3-b]pyridin-3-yl)pyridin-2-yl]amino}cyclohexyl)methyl]cyclohexyl}-3,5-dimethyl-1,2-oxazole-4-sulfonamide], the inhibition constant (Ki) is less than 0.01 µM.
`COc1cnc2[nH]cc(-c3cc(Cl)nc(NC4CCCC(NC(=O)CN(C)C)C4)c3)c2c1` (centres unmarked) [Example 448, N-(3-{[6-chloro-4-(5-methoxy-1H-pyrrolo[2,3-b]pyridin-3-yl)pyridin-2-yl]amino}cyclohexyl)-N~2~,N~2~-dimethylglycinamide] had a Ki of less than 0.01 µM.
The compound `Clc1cc(-c2c[nH]c3ncccc23)cc(Nc2ccc(N3CCN(Cc4ccccn4)CC3)cc2)n1` [Example 449, 6-chloro-N-{4-[4-(pyridin-2-ylmethyl)piperazin-1-yl]phenyl}-4-(1H-pyrrolo[2,3-b]pyridin-3-yl)pyridin-2-amine] registered a Ki of less than 0.01 µM.
The figure for `Clc1cc(-c2c[nH]c3ncccc23)cc(Nc2ccc(N3CCN(CC4CCCCC4)CC3)cc2)n1` [Example 450, 6-chloro-N-{4-[4-(cyclohexylmethyl)piperazin-1-yl]phenyl}-4-(1H-pyrrolo[2,3-b]pyridin-3-yl)pyridin-2-amine] is less than 0.01 µM.
For `CC(C)CN1CCN(c2ccc(Nc3cc(-c4c[nH]c5ncccc45)cc(Cl)n3)cc2)CC1` [Example 451, 6-chloro-N-{4-[4-(2-methylpropyl)piperazin-1-yl]phenyl}-4-(1H-pyrrolo[2,3-b]pyridin-3-yl)pyridin-2-amine] the value was less than 0.01 µM; for `Nc1ccc(-c2cnc3[nH]cc(-c4cc(Cl)nc(N[C@H]5CC[C@H](NS(=O)(=O)C6CC6)CC5)c4)c3c2)cn1` [Example 452, N-[trans-4-({4-[5-(6-aminopyridin-3-yl)-1H-pyrrolo[2,3-b]pyridin-3-yl]-6-chloropyridin-2-yl}amino)cyclohexyl]cyclopropanesulfonamide], less than 0.01 µM.
In turn, `O=S(=O)(N[C@H]1CC[C@H](Nc2cc(-c3c[nH]c4ncc(-c5cccnc5)cc34)cc(Cl)n2)CC1)C1CC1` [Example 453, N-[trans-4-({6-chloro-4-[5-(pyridin-3-yl)-1H-pyrrolo[2,3-b]pyridin-3-yl]pyridin-2-yl}amino)cyclohexyl]cyclopropanesulfonamide] came in with a Ki of less than 0.01 µM.
With `NS(=O)(=O)c1cccc(-c2cnc3[nH]cc(-c4cc(Cl)nc(N[C@H]5CC[C@H](NS(=O)(=O)C6CC6)CC5)c4)c3c2)c1` [Example 454, 3-{3-[2-chloro-6-({trans-4-[(cyclopropylsulfonyl)amino]cyclohexyl}amino)pyridin-4-yl]-1H-pyrrolo[2,3-b]pyridin-5-yl}benzenesulfonamide], the Ki is less than 0.01 µM.
`O=S(=O)(N[C@H]1CC[C@H](Nc2cc(-c3c[nH]c4ncc(-c5cncnc5)cc34)cc(Cl)n2)CC1)C1CC1` [Example 455, N-[trans-4-({6-chloro-4-[5-(pyrimidin-5-yl)-1H-pyrrolo[2,3-b]pyridin-3-yl]pyridin-2-yl}amino)cyclohexyl] cyclopropanesulfonamide] yielded a Ki of less than 0.01 µM.
`C[C@@H](Nc1nc(Cl)cc(-c2c[nH]c3ncccc23)n1)c1ccccc1` [Example 456, 4-chloro-N-[(1R)-1-phenylethyl]-6-(1H-pyrrolo[2,3-b]pyridin-3-yl)pyrimidin-2-amine] came in with a Ki of less than 0.01 µM.
Consider `Oc1cccc(CNc2nc(Cl)cc(-c3c[nH]c4ncccc34)n2)c1` [Example 457, 3-({[4-chloro-6-(1H-pyrrolo[2,3-b]pyridin-3-yl)pyrimidin-2-yl]amino}methyl)phenol], for which the Ki was less than 0.01 µM.
The compound `Oc1ccc(CNc2nc(Cl)cc(-c3c[nH]c4ncccc34)n2)cc1` [Example 458, 4-({[4-chloro-6-(1H-pyrrolo[2,3-b]pyridin-3-yl)pyrimidin-2-yl]amino}methyl)phenol] showed a Ki of less than 0.01 µM.
In the case of `CN(C)C1CCC(Nc2nc(Cl)cc(-c3c[nH]c4ncccc34)n2)CC1` (centres unmarked) [Example 459, N′-[4-chloro-6-(1H-pyrrolo[2,3-b]pyridin-3-yl)pyrimidin-2-yl]-N,N-dimethylcyclohexane-1,4-diamine], the Ki is less than 0.01 µM.
The figure for `NC1CCC(CC2CCC(Nc3nc(Cl)cc(-c4c[nH]c5ncccc45)n3)CC2)CC1` (centres unmarked) [Example 465, N-{4-[(4-aminocyclohexyl)methyl]cyclohexyl}-4-chloro-6-(1H-pyrrolo[2,3-b]pyridin-3-yl)pyrimidin-2-amine] is less than 0.01 µM; for `NCCNc1nc(Cl)cc(-c2c[nH]c3ncccc23)n1` [Example 466, N-[4-chloro-6-(1H-pyrrolo[2,3-b]pyridin-3-yl)pyrimidin-2-yl]ethane-1,2-diamine] it is less than 0.01 µM.
On to `OCCNc1nc(Cl)cc(-c2c[nH]c3ncccc23)n1` [Example 467, 2-{[4-chloro-6-(1H-pyrrolo[2,3-b]pyridin-3-yl)pyrimidin-2-yl]amino}ethanol], for which the Ki was less than 0.01 µM.
For `NCCOCCOCCNc1nc(Cl)cc(-c2c[nH]c3ncccc23)n1` [Example 468, N-{2-[2-(2-aminoethoxy)ethoxy]ethyl}-4-chloro-6-(1H-pyrrolo[2,3-b]pyridin-3-yl)pyrimidin-2-amine] the value was less than 0.01 µM.
Compound `O=C(NC1CCCC1)N[C@H]1CC[C@H](Nc2nc(Cl)cc(-c3c[nH]c4ncccc34)n2)CC1` [Example 470, 1-(trans-4-{[4-chloro-6-(1H-pyrrolo[2,3-b]pyridin-3-yl)pyrimidin-2-yl]amino}cyclohexyl)-3-cyclopentylurea] displayed a Ki of less than 0.01 µM.

(Values after US8435980B2 (AbbVie Inc., priority 2009, dated 2013).)
